Data as given in PMC11843613, “Further Optimization of the mGlu1 PAM VU6024578/BI02982816: Discovery and Characterization of VU6033685” (ACS Chemical Neuroscience, 2025).

What was measured:
[1] = Predicted hepatic clearance from hepatic microsomes (human); type: in vitro ADME
Method: (§1) Intrinsic clearance: Human or rat hepatic microsomes (0.5 mg/mL) and 1 µM test compound were incubated in 100 mM potassium phosphate pH 7.4 buffer with 3 mM MgCl2 at 37°C with constant shaking.
(§2) After a 5 min preincubation, the reaction was initiated by addition of NADPH (1 mM). At selected time intervals (0, 3, 7, 15, 25, and 45 min), aliquots were taken and subsequently placed into a 96-well plate containing cold acetonitrile with internal standard (50 ng/mL carbamazepine). Plates were then centrifuged at 3000 rcf (4° C) for 10 min, and the supernatant was transferred to a separate 96-well plate and diluted 1:1 with water for LC/MS/MS analysis. The in vitro half-life (T 1/2, min, Eq. 1), intrinsic clearance (CLint, mL/min/kg, Eq. 2) and subsequent predicted hepatic clearance (CLhep, mL/min/kg, Eq. 3) was determined […]
(§3) employing the following equations: […]
(§4) where k represents the slope from linear regression analysis of the natural log percent remaining of test compound as a function of incubation time
(§5) 0.693 mL incubation 45 mg microsomes 20a gram liver
(§6) (2) CLint = in vitroT x mg microsomes x gram liver x kg body wt […]
(§7) ascale-up factors: of 20 (human) or 45 (rat) […]
(§8) where Qh (hepatic blood flow, mL/min/kg) is 21 (human) or 70 (rat).
(§9) LC/MS/MS Bioanalysis of Samples from Plasma Protein Binding and Intrinsic Clearance Assays. Samples were analyzed on a Thermo Electron TSQ Quantum Ultra triple quad mass spectrometer (San Jose, CA) via electrospray ionization (ESI) with two Themo Electron Accella pumps (San Jose, CA), and a Leap Technologies CTC PAL autosampler (Carrboro, NC). Analytes were separated by gradient elution on a dual column system with two Thermo Hypersil Gold (2.1 x 30 mm, 1.9 µm) columns (San Jose, CA) thermostated at 40°C. HPLC mobile phase A was 0.1% formic acid in water and mobile phase B was 0.1% formic acid in acetonitrile. The gradient […]
(§10) 95% B for 0.2 min; returned to 10% B in 0.1 min. The total run time was 1.3 min and the HPLC flow rate was 0.8 mL/min. While pump 1 ran the gradient method, pump 2 equilibrated the alternate column isocratically at 10% B. Compound optimization, data collection and […]

rat mGlu1 = rat mGlu1 (Rattus norvegicus, UniProt P23385); test: mGlu1 PAM functional assay (rat); type: cell-based
Sequence of rat mGlu1 (P23385 19-1199): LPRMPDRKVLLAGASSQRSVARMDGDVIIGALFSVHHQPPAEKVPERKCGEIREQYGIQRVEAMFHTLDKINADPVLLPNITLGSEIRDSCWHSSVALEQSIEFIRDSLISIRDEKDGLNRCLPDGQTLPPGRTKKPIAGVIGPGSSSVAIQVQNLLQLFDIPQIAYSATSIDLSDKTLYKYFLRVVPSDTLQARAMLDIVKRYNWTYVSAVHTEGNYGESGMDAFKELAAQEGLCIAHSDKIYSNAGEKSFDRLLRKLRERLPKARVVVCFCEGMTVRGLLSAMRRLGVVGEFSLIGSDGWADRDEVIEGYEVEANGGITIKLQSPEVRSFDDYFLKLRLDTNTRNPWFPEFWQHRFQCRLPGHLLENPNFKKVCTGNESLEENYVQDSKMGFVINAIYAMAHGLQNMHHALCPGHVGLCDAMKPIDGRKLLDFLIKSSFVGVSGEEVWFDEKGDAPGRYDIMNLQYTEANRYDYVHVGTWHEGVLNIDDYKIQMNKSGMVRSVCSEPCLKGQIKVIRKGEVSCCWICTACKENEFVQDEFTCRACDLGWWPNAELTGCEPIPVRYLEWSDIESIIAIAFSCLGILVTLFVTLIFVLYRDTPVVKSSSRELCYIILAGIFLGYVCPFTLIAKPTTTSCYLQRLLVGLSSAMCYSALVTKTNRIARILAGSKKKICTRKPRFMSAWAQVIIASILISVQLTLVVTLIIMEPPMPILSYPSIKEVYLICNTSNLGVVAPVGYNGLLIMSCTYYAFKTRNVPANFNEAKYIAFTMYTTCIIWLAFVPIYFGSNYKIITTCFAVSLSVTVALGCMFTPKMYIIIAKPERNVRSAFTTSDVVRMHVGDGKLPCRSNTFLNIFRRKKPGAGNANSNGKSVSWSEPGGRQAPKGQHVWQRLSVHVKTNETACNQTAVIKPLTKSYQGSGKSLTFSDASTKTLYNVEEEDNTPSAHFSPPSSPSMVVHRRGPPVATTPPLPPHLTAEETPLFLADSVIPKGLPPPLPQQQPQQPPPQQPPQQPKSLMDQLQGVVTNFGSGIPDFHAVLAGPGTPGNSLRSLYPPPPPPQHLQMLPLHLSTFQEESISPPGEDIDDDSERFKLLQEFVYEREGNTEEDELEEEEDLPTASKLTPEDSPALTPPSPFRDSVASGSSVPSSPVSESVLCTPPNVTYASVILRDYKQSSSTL

[2] = Predicted hepatic clearance from hepatic microsomes (rat); type: in vitro ADME
Method: as §1, §2, §3, §4, §5, §6, §7, §8, §9, §10

[3] = Rat CNS penetration (brain:plasma); type: in vivo; conditions: male, Sprague-Dawley, intraperitoneal, 10 mg/kg; for Kp at 0.25 h: brain and plasma, rat brain:plasma; for Kp uu at 0.25 h: rat, brain/plasma
Method: In vivo DMPK experimental
Compounds were formulated as 10% tween 80 micro suspensions in sterile water at the concentration of 1 mg/ml and administered intraperitoneally to male Sprague- Dawley rats weighing 225 to 250 g (Harlan, Inc., Indianapolis, IN) at the dose of 10 mg/kg. The rat blood and brain were collected at 0.25 hr. Animals were euthanized and decapitated, and the brains were removed, thoroughly washed in cold phosphate buffered saline and immediately frozen on dry ice.
Trunk blood was collected in EDTA Vacutainer tubes, and plasma was separated by centrifugation and stored at -80°C until analysis. Plasma was separated by centrifugation (4000 rcf, 4°C) and stored at […] until analysis. On the day of analysis, frozen whole-rat brains were weighed and diluted with 1:3 (w/w) parts of 70:30 isopropanol:water. The mixture was then subjected to mechanical homogenation employing a Mini-Beadbeater™ and 1.0 mm Zirconia/Silica Beads (BioSpec Products) followed by centrifugation. The sample extraction of plasma (20 μL) or brain homogenate (20 μL) was performed by a method based on protein precipitation using three volumes of ice-cold acetonitrile containing an internal standard (50 ng/mL carbamazepine). The samples were centrifuged (3000 rcf, 5 min) and supernatants transferred and diluted 1:1 (supernatant: water) into a new 96 well plate, which was then sealed in preparation for LC/MS/MS […]
In vivo samples were analyzed via electrospray ionization (ESI) on an AB Sciex API-5500 QTrap (Foster City, CA) instrument that was coupled with Shimadzu LC-20AD pumps (Columbia, MD) and a Leap Technologies CTC PAL auto-sampler (Carrboro, NC). Analytes were separated by gradient elution using a Fortis C18 3.0 x 50 mm, 3 µm column (Fortis Technologies Ltd, Cheshire, UK) thermostated at 40°C. HPLC mobile phase A was 0.1% formic acid in water (pH unadjusted), mobile phase B was 0.1% formic acid in acetonitrile (pH unadjusted). The gradient started at 30% […]
min and returned to 30% B in 0.1 min followed by a re-equilibration (0.9 min). The total run time was 2.5 min and the HPLC flow rate was 0.5 mL/min. The source temperature was set at 500°C and mass spectral analyses were performed using multiple reaction monitoring (MRM), with transitions specific for each compound utilizing a Turbo-Ionspray® source in positive ionization […]
mode (5.0 kV spray voltage). The calibration curves were constructed in blank plasma. All data were analyzed using AB Sciex Analyst software v1.5.1.
All animal study procedures were approved by the Institutional Animal Care and Use Committee and were conducted in accordance with the National Institutes of Health regulations of animal care covered in Principles of Laboratory Animal Care (National Institutes of Health). […]
GraphPad Prism (version 4.03, GraphPad, La Jolla, CA). […]

SMILES	Predicted CLhep (h) [1] [mL/min/kg]	EC50 (rat mGlu1) [nM]	rat mGlu1 Glu Max (rat mGlu1) [%]	Predicted CLhep (r) [2] [mL/min/kg]	Kp at 0.25 h [3]	Kp uu at 0.25 h [3]
Cn1cc(-c2cc(CNC(=O)c3cc(-c4ccco4)ccc3Cl)n(C)n2)cn1 [compound 4]	15.1	37	137	34.2	0.89	0.98
Cn1nc(-c2ccnn2C)cc1CNC(=O)c1cc(-n2cccn2)ccc1Cl [compound 5]	4.6	558	105	21.4	0.3	0.52
Cc1nc2ccccc2cc1CNC(=O)c1cc(-n2cccn2)ccc1Cl [compound 6]	15.8			47.8		
Cc1nc2c(F)cccc2cc1CNC(=O)c1cc(-n2cccn2)ccc1Cl [compound 7]	13.3			46.8	0.98	
Cc1nc(C2CC2)ccc1CNC(=O)c1cc(-n2cccn2)ccc1Cl [compound 8]	9.9	107	94	46.7	1.8	1.2
